Data from patent US6593480B2 (Abbott Laboratories, priority 1999, dated 2003).

Columns and labels:
[1] = biological target: T1, Human glucocorticoid receptors (Homo sapiens, UniProt P04150); experiment: Radioligand filter binding assay, displacement of 3(H)-dexamethasone from human glucocorticoid receptor cytosol; details: 1.7 μM test compound, inhibition of 3(H)-dex binding to hGR; for inhibition at 1.7 µM: read-out: GR BINDING (% Inhibition @ 1.7 μM)
T1 construct: made in house; host or cells: Sf9 insect cells, recombinant baculovirus (BAC-TO-BAC)
T1 sequence (P04150 1-777): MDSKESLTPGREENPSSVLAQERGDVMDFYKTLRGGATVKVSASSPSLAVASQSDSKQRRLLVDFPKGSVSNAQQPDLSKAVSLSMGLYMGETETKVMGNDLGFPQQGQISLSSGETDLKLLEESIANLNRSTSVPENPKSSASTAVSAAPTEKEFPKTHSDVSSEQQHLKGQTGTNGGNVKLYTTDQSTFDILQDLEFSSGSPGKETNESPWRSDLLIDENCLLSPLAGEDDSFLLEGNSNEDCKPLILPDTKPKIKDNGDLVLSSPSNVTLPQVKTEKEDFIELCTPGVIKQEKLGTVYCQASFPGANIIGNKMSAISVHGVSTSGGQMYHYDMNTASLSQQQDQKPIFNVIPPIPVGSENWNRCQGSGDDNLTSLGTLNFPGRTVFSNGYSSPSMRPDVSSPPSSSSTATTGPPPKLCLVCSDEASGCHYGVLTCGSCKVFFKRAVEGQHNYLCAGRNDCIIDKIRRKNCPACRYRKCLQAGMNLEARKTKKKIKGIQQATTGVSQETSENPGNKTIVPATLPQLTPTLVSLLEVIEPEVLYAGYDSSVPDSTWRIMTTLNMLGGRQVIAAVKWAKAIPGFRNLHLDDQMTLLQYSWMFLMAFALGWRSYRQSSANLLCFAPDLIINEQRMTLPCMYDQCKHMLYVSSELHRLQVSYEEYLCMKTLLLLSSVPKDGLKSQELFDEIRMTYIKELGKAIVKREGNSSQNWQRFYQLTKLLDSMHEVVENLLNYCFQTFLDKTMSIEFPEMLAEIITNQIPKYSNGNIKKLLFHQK
Procedure: Dexamethasone hereafter referred to as dex was purchased from SIGMA. […] Human glucocorticoid receptors were extracted from Sf9 cells infected with a recombinant baculovirus transfer vector containing the cloned hGR genes. […] The recombinant baculovi, uses expressing hGR were amplified and used to infect Sf9 cells. Infected cells were harvested 48 hrs post infection. […] The concentration of hGR in the extract was measured as specific ^3(H)-dex binding with the G25-assay as described in J. Steroid Biochem. Molec. […] The extract was aliquoted and stored at −70° C.
The filter binding assay: Dilution series of the test compounds and dex as reference were made from 10 mM (1 mM dex) stock solutions in DMSO. 10 μl of the dilutions was added in duplicates to the wells. The cell extracts were diluted 10 fold in EPMo +MTG buffer (1 mM EDTA, HPO4 20 mM (pH8), 6 mM MTG). […] 110 μl of the diluted ^3(H)-dex were added to the wells. The final concentration of hGR in the experiment was estimated to 1 nM. All preparations were made in ambient temperature (20-25° C.) on ice and with +4° C. temperated buffers. The plates were incubated over night at +4° C. (15-20hrs).
The incubation was stopped by filtration through GF/B filter on the Tomtec Cellharvester. The filtration on the Tomtec Cellharvester was programmed as follows: 1) Preparation before filtration with EP buffer (1 mM EDTA 20 mM HPO4 (pH8)) 2×(Wash/Asp 0.6 sec., Asp 0.5 sec.); 2) Prewet of GF/B filter with EP+PEI buffer (EP buffer, 0.3% Polyesthylenimine) (Asp 0.8 sec.). 3) Filtration/harvesting of the 96-well incubation plate 3×(Wash/Asp 0.6 sec., Asp 0.5 sec.). The GF/B filter was dried for at least 1 hr at 65° C. A MeltiLex scintillation wax was melted onto the filter with the Microsealer. The filter was placed in a samplebag, which was thereafter trimmed with scissors to fit the filter cassette. The cassette were placed in the Microbeta and measured for 1 min/position, returning ccpm (conrected counts per minute).
The Microbeta-instrument generates the mean cpm (counts per minute) value/minute and corrects for individual variations between the detectors thus generating corrected cpm values.

[2] = biological target: T2, progesterone receptor (PR) (Homo sapiens, UniProt P06401); experiment: Radioligand binding assay with progesterone receptor cytosol (similar protocol)
T2 sequence (P06401 1-933): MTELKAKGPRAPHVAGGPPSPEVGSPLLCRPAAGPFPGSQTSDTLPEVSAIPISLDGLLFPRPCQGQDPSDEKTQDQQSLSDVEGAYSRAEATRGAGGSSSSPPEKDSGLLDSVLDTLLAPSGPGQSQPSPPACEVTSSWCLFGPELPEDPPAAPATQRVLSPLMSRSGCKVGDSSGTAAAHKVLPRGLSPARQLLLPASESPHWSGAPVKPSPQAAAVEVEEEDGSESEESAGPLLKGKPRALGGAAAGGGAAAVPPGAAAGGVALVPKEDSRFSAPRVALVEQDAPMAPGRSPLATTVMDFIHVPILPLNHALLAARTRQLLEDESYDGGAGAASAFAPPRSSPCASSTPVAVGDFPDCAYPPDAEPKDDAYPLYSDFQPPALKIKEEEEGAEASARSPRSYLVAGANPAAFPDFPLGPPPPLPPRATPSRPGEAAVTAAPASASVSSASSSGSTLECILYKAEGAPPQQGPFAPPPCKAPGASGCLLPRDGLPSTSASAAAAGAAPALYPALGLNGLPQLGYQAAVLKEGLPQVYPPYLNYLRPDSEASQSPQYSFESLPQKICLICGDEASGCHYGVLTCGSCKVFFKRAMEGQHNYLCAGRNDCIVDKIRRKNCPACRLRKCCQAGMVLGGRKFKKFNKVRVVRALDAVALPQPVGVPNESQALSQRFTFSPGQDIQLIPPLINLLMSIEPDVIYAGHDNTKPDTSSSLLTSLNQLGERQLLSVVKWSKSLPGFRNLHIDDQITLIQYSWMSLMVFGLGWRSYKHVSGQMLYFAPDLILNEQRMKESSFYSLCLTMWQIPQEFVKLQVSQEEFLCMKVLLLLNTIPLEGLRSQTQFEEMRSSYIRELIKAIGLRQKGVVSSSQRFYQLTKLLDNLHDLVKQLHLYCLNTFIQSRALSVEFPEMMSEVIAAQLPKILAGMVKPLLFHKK
Text: Methods for Radioligand Binding Studies with Human Glucocorticoid and Progesterone Receptor Cytosol
A similar protocol was employed to measure affinity of the compounds of the present invention for progesterone receptor (PR).

| Molecule | IC50 [2] [µM] | also measured |
| --- | --- | --- |
| CCCC1Oc2cccc(OC(F)F)c2-c2ccc(NS(C)(=O)=O)cc21 (racemic) [Example 27] | – | inhibition at 1.7 µM [1]: 86.8% |
| C=Cc1cccc2c1-c1ccc(NS(C)(=O)=O)cc1C(c1ccccc1)O2 (racemic) [Example 37] | – | inhibition at 1.7 µM [1]: 94.8% |
| CC#Cc1cccc2c1-c1ccc(NS(C)(=O)=O)cc1C(c1ccccc1)O2 (racemic) [Example 39] | – | inhibition at 1.7 µM [1]: 90.6% |
| CS(=O)(=O)Nc1ccc2c(c1)C(c1ccccc1)Oc1cccc(-c3ccco3)c1-2 (racemic) [Example 40] | – | inhibition at 1.7 µM [1]: 69.3% |
| C=CCc1cccc2c1-c1ccc(NS(C)(=O)=O)cc1C(c1ccccc1)O2 (racemic) [Example 41] | – | inhibition at 1.7 µM [1]: 88.7% |
| CCS(=O)(=O)Nc1ccc2c(c1)C(c1ccccc1)Oc1cccc(OC)c1-2 (stereo not drawn) [Example 7, (1-methoxy-6-phenyl-6H-dibenzo(b,d)pyran-8-yl)ethanesulfonamide] | – | GR BINDING (% Inhibition @ 1.7 μM) [1]: 90.6% |
| COc1cccc2c1-c1ccc(NS(=O)(=O)C(C)C)cc1C(c1ccccc1)O2 (stereo not drawn) [Example 8, (1-methoxy-6-phenyl-6H-dibenzo(b,d)pyran-8-yl)isopropanesulfonamide] | – | GR BINDING (% Inhibition @ 1.7 μM) [1]: 87.9% |
| COc1cccc2c1-c1ccc(NS(=O)(=O)/C=C/c3ccccc3)cc1C(c1ccccc1)O2 (stereo not drawn) [Example 11, (1-methoxy-6-phenyl-6H-dibenzo(b,d)pyran-8-yl)-(2-phenyl-E-ethenyl) sulfonamide] | – | inhibition at 1.7 µM [1]: 57.8% |
| COc1cccc2c1-c1ccc(CC(N)=O)cc1C(c1ccccc1)O2 (stereo not drawn) [Example 12, (1-methoxy-6-phenyl-6H-dibenzo(b,d)pyran-8-yl)acetamide] | – | inhibition at 1.7 µM [1]: 86.1% |
| CCC(=O)Nc1ccc2c(c1)C(c1ccccc1)Oc1cccc(OC)c1-2 (stereo not drawn) [Example 13, (1-methoxy-6-phenyl-6H-dibenzo(b,d)pyran-8-yl)propionamide] | – | GR BINDING (% Inhibition @ 1.7 μM) [1]: 85.4% |
| COc1cccc2c1-c1ccc(NC(=O)C(C)C)cc1C(c1ccccc1)O2 (stereo not drawn) [Example 14] | – | GR BINDING (% Inhibition @ 1.7 μM) [1]: 85.1% |
| COc1cccc2c1-c1ccc(NC(=O)C3CC3)cc1C(c1ccccc1)O2 (stereo not drawn) [Example 16, (1-methoxy-6-phenyl-6H-dibenzo(b,d)pyran-8-yl)cyclopropanecarboxamide] | – | GR BINDING (% Inhibition @ 1.7 μM) [1]: 74.3% |
| COc1cccc2c1-c1ccc(NS(C)(=O)=O)cc1C(c1cccc(-c3ccc(Cl)cc3)c1)O2 (stereo not drawn) [Example 126, N-[6-(4′-chloro[1,1′-biphenyl]-3-yl)-1-methoxy-6H-benzo[c]chromen-8-yl]methanesulfonamide] | > 10 | – |
| COc1cccc2c1-c1ccc(NS(C)(=O)=O)cc1C(c1cccc(-c3ccc(Cl)c(Cl)c3)c1)O2 (stereo not drawn) [Example 127, N-[6-(3′,4′-dichloro[1,1′-biphenyl]-3-yl)-1-methoxy-6H-benzo[c]chromen-8-yl]methanesulfonamide] | > 10 | – |
| COc1cccc2c1-c1ccc(NS(C)(=O)=O)cc1C(c1cccc(-c3ccc(O)cc3)c1)O2 (stereo not drawn) [Example 128, N-[6-(4′-hydroxy[1,1′-biphenyl]-3-yl)-1-methoxy-6H-benzo[c]chromen-8-yl]methanesulfonamide] | 0.88 | – |
| COc1cccc2c1-c1ccc(NS(C)(=O)=O)cc1C(c1cccc(N(C)S(=O)(=O)c3ccccc3)c1)O2 (stereo not drawn) [Example 129, N(3-{1-methoxy-8-[(methylsulfonyl)amino]-6H-benzo[c]chromen-6-yl}phenyl)-N-methylbenzenesulfonamide] | > 10 | – |
| COc1cccc2c1-c1ccc(NS(C)(=O)=O)cc1C(c1cccc(N(C)S(=O)(=O)CCCCl)c1)O2 (stereo not drawn) [Example 130, 3-chloro-N-(3-{1-methoxy-8-[(methylsulfonyl)amino]-6H-benzo[c]chromen-6-yl}phenyl)-N-methyl-1-propanesulfonamide] | > 10 | – |
| CCS(=O)(=O)N(C)c1cccc(C2Oc3cccc(OC)c3-c3ccc(NS(C)(=O)=O)cc32)c1 (stereo not drawn) [Example 131, N-(3-{1-methoxy-8-[(methylsulfonyl)amino]-6H-benzo[c]chromen-6-yl}phenyl)-N-methylethanesulfonamide] | > 10 | – |
| CCCS(=O)(=O)N(C)c1cccc(C2Oc3cccc(OC)c3-c3ccc(NS(C)(=O)=O)cc32)c1 (stereo not drawn) [Example 132, N-(3-{1-methoxy-8-[(methylsulfonyl)amino]-6H-benzo[c]chromen-6-yl}phenyl)-N-methyl-1-propanesulfonamide] | > 10 | – |
| COc1cccc2c1-c1ccc(NS(C)(=O)=O)cc1C(c1cccc(-c3ccc(N(C)C)cc3)c1)O2 (stereo not drawn) [Example 133, N-{6-[4′-(dimethylamino)[1,1′-biphenyl]-3-yl]-1-methoxy-6H-benzo[c]chromen-8-yl}methanesulfonamide] | > 10 | – |
| CS(=O)(=O)Nc1ccc2c(c1)C(c1cccc(CCCCc3ccccc3)c1)Oc1cccc(OC(F)F)c1-2 (stereo not drawn) [Example 136, N-{1-(difluoromethoxy)-6-[3-(4-phenylbutyl)phenyl]-6H-benzo[c]chromen-8-yl}methanesulfonamide] | > 10 | – |
| CS(=O)(=O)Nc1ccc2c(c1)C(c1cccc(CCCCCCC#N)c1)Oc1cccc(OC(F)F)c1-2 (stereo not drawn) [Example 137, N-[6-[3-(6-cyanohexyl)phenyl]-1-(difluoromethoxy)-6H-benzo[c]chromen-8-yl]methanesulfonamide] | > 10 | – |
| CS(=O)(=O)Nc1ccc2c(c1)C(c1cccc(-c3ccc(Cl)cc3)c1)Oc1cccc(OC(F)F)c1-2 (stereo not drawn) [Example 143, N-[6-(4′-chloro[1,1′-biphenyl]-3-yl)-1-(difluoromethoxy)-6H-benzo[c]chromen-8-yl]methanesulfonamide] | 0.22 | – |
| CS(=O)(=O)Nc1ccc2c(c1)C(c1cccc(-c3ccc(F)cc3)c1)Oc1cccc(OC(F)F)c1-2 (stereo not drawn) [Example 144, N-[1-(difluoromethoxy)-6-(4′-fluoro[1,1′-biphenyl]-3-yl)-6H-benzo[c]chromen-8-yl]methanesulfonamide] | 0.14 | – |
| COc1ccc(-c2cccc(C3Oc4cccc(OC(F)F)c4-c4ccc(NS(C)(=O)=O)cc43)c2)cc1 (stereo not drawn) [Example 145, N-[1-(difluoromethoxy)-6-(4′-methoxy[1,1′-biphenyl]-3-yl)-6H-benzo[c]chromen-8-yl]methanesulfonamide] | 0.39 | – |
| CS(=O)(=O)Nc1ccc2c(c1)C(c1cccc(-c3ccccc3Cl)c1)Oc1cccc(OC(F)F)c1-2 (stereo not drawn) [Example 146, N-[6-(2′-chloro[1,1′-biphenyl]-3-yl)-1-(difluoromethoxy)-6H-benzo[c]chromen-8-yl]methanesulfonamide] | 0.26 | – |
| Cc1ccc(-c2cccc(C3Oc4cccc(OC(F)F)c4-c4ccc(NS(C)(=O)=O)cc43)c2)cc1 (stereo not drawn) [Example 147, N-[1-(difluoromethoxy)-6-(4′-methyl[1,1′-biphenyl]-3-yl)-6H-benzo[c]chromen-8-yl]methanesulfonamide] | 0.53 | – |
| COc1cccc2c1-c1ccc(NS(C)(=O)=O)cc1C(c1cccc(N(C)S(=O)(=O)c3ccc(Br)cc3)c1)O2 (stereo not drawn) [Example 152, 4-bromo-N-(3-{1-methoxy-8-[(methylsulfonyl)amino]-6H-benzo[c]chromen-6-yl}phenyl)-N-methylbenzenesulfonamide] | ≥ 10 | – |
| COc1ccc(Br)c2c1-c1ccc(NS(C)(=O)=O)cc1C(c1ccccc1)O2 (stereo not drawn) [Example 154, N-(4-bromo-1-methoxy-6-phenyl-6H-benzo[c]chromen-8-yl)methanesulfonamide] | 0.68 | – |
| (1-ethoxy-6-phenyl-6H-dibenzo(b,d)pyran-8-yl)methanesulfonamide [Example 44] | 6.9 | – |
